According to patent US20210169892A1, “MODULATORS OF THE INTEGRATED STRESS PATHWAY” (Calico Life Sciences LLC, priority 2017, published 2021):

System: HEK293T cells carrying the ATF4 luciferase reporter
Assay: ATF4-Luc assay (in vitro model of vanishing white matter disease)
Assay type: cell-based
Conditions: Homo sapiens, HEK-293T; HEK293T cells with ATF4 luciferase reporter, 1 μg/mL tunicamycin, 7 hours, One Glo luminescence
Method: In order to test exemplary compounds of the invention in a cellular context, a stable VWMD cell line was first constructed. The ATF4 reporter was prepared by fusing the human full-length ATF4 5′-UTR (NCBI Accession No. BC022088.2) in front of the firefly luciferase (FLuc) coding sequence lacking the initiator methionine as described in Sidrauski et al (eLife 2013). The construct was used to produce recombinant retroviruses using standard methods and the resulting viral supernatant was used to transduce HEK293T cells, which were then subsequently selected with puromycin to generate a stable cell line.
HEK293T cells carrying the ATF4 luciferase reporter were plated on polylysine coated 384-well plates (Greiner Bio-one) at 30,000 cells per well. Cells were treated the next day with 1 μg/mL tunicamycin and 200 nM of a compound of Formula (I) for 7 hours. Luminescence was measured using One Glo (Promega) as specified by the manufacturer. Cells were maintained in DMEM with L-glutamine supplemented with 10% heat-inactivated FBS (Gibco) and Antibiotic-Antimycotic solution (Gibco).
Table 2 below summarizes the EC50 data obtained using the ATF4-Luc assay for exemplary compounds of the invention.

SMILES | EC50 [nM]
O=C(COc1ccc(Cl)c(F)c1)NC12CCC(NC(=O)C3CNc4ccccc4O3)(CC1)C[C@@H]2O (stereo partly drawn) [Compound 110, N-{(3S)-4-[2-(4-chloro-3-fluorophenoxy)acetamido]-3-hydroxybicyclo[2.2.2]octan-1-yl}-3,4-dihydro-2H-1,4-benzoxazine-2-carboxamide] | 10 to 50
O=C(COc1ccc(Cl)c(F)c1)NC12CC(NC(=O)C3CN(CCO)c4cc(Cl)ccc4O3)(C1)C2 (centres unmarked) [Compound 135, 6-chloro-N-{3-[2-(4-chloro-3-fluorophenoxy)acetamido]bicyclo[1.1.1]pentan-1-yl}-4-(2-hydroxyethyl)-3,4-dihydro-2H-1,4-benzoxazine-2-carboxamide] | < 10
O=C(COc1ccc(Cl)c(F)c1)NC12CC(NC(=O)[C@H]3CN(C(=O)[C@H]4C[C@H]4F)c4cc(Cl)ccc4O3)(C1)C2 (single isomer, unassigned) [Compound 142] | 50 to 250
COc1cccc(C(=O)N2CC(C(=O)NC34CC(NC(=O)COc5ccc(Cl)c(F)c5)(C3)C4)Oc3ccc(Cl)cc32)c1 (centres unmarked) [Compound 146, 6-chloro-N-{3-[2-(4-chloro-3-fluorophenoxy)acetamido]bicyclo[1.1.1]pentan-1-yl}-4-(3-methoxybenzoyl)-3,4-dihydro-2H-1,4-benzoxazine-2-carboxamide] | 500 to 2000
O=C(COc1ccc(Cl)c(F)c1)NC12CC(NC(=O)C3CN(C(=O)[C@@H]4C[C@@H]4F)c4cc(Cl)ccc4O3)(C1)C2 (stereo partly drawn) [Compound 175, 6-chloro-N-{3-[2-(4-chloro-3-fluorophenoxy)acetamido]bicyclo[1.1.1]pentan-1-yl}-4-[(1S,2S)-2-fluorocyclopropane-1-carbonyl]-3,4-dihydro-2H-1,4-benzoxazine-2-carboxamide] | 250 to 500
O=C(COc1ccc(Cl)c(F)c1)NC12CC(NC(=O)C3CN(C(=O)C4CC4)c4cc(Cl)ccc4O3)(C1)C2 (centres unmarked) [Compound 149, 6-chloro-N-{3-[2-(4-chloro-3-fluorophenoxy)acetamido]bicyclo[1.1.1]pentan-1-yl}-4-(cyclopropanecarbonyl)-3,4-dihydro-2H-1,4-benzoxazine-2-carboxamide] | 50 to 250
COCCOCC(=O)N1CC(C(=O)NC23CC(NC(=O)COc4ccc(Cl)c(F)c4)(C2)C3)Oc2ccc(Cl)cc21 (centres unmarked) [Compound 156, 6-chloro-N-{3-[2-(4-chloro-3-fluorophenoxy)acetamido]bicyclo[1.1.1]pentan-1-yl}-4-[(2-methoxyethoxy)acetyl]-3,4-dihydro-2H-1,4-benzoxazine-2-carboxamide] | 10 to 50
O=C(COc1ccc(Cl)c(F)c1)NC12CC(NC(=O)C3CN(C(=O)C(F)(F)C(F)(F)C(F)(F)F)c4cc(Cl)ccc4O3)(C1)C2 (centres unmarked) [Compound 159, 6-chloro-N-{3-[2-(4-chloro-3-fluorophenoxy)acetamido]bicyclo[1.1.1]pentan-1-yl}-4-(2,2,3,3,4,4,4-heptafluorobutanoyl)-3,4-dihydro-2H-1,4-benzoxazine-2-carboxamide] | < 10
O=C(COc1ccc(Cl)c(F)c1)NC12CCC(NC(=O)C3COc4ccccc4O3)(CC1)[C@H](O)C2 (stereo partly drawn) [Compound 123, N-{(2R)-4-[2-(4-chloro-3-fluorophenoxy)acetamido]-2-hydroxybicyclo[2.2.2]octan-1-yl}-2,3-dihydro-1,4-benzodioxine-2-carboxamide] | 250 to 500
O=C(CN1CCc2cc(Cl)ccc21)NC12CCC(NC(=O)COc3ccc(Cl)c(F)c3)(CC1)[C@@H](O)C2 [Compound 101, 2-(5-chloro-2,3-dihydro-1H-indol-1-yl)-N-{(3S)-4-[2-(4-chloro-3-fluorophenoxy)acetamido]-3-hydroxybicyclo[2.2.2]octan-1-yl}acetamide] | 500 to 2000
COc1ccc(S(=O)(=O)N2CC(C(=O)NC34CC(NC(=O)COc5ccc(Cl)c(F)c5)(C3)C4)Oc3ccc(Cl)cc32)cc1 (centres unmarked) [Compound 164, 6-chloro-N-{3-[2-(4-chloro-3-fluorophenoxy)acetamido]bicyclo[1.1.1]pentan-1-yl}-4-(4-methoxybenzene-1-sulfonyl)-3,4-dihydro-2H-1,4-benzoxazine-2-carboxamide] | > 2000
O=C(COc1ccc(Cl)c(F)c1)NC12CC(NC(=O)C3COc4cc(F)c(F)cc4O3)(C1)C2 (centres unmarked) [Compound 118, N-{3-[2-(4-chloro-3-fluorophenoxy)acetamido]bicyclo[1.1.1]pentan-1-yl}-6,7-difluoro-2,3-dihydro-1,4-benzodioxine-2-carboxamide] | < 10
O=C(NC12CC(NC(=O)C3COc4cc(Cl)c(Cl)cc4O3)(C1)C2)c1cnc(C(F)F)cn1 (centres unmarked) [Compound 133, N-{3-[(6,7-dichloro-2,3-dihydro-1,4-benzodioxine-2-carbonyl)amino]bicyclo[1.1.1]pentan-1-yl}-5-(difluoromethyl)pyrazine-2-carboxamide] | 10 to 50
O=C(COc1ccc(F)c(F)c1)NC12CC(NC(=O)C3COc4cc(Cl)c(Cl)cc4O3)(C1)C2 (centres unmarked) [Compound 117, 6,7-dichloro-N-{3-[2-(3,4-difluorophenoxy)acetamido]bicyclo[1.1.1]pentan-1-yl}-2,3-dihydro-1,4-benzodioxine-2-carboxamide] | < 10
O=C(COc1ccc(Cl)c(F)c1)NC12CC(NC(=O)C3CN(C(=O)CO)c4cc(Cl)ccc4O3)(C1)C2 (centres unmarked) [Compound 136, 6-chloro-N-{3-[2-(4-chloro-3-fluorophenoxy)acetamido]bicyclo[1.1.1]pentan-1-yl}-4-(hydroxyacetyl)-3,4-dihydro-2H-1,4-benzoxazine-2-carboxamide] | < 10
O=C(COc1ccc(Cl)c(F)c1)NC12CC(NC(=O)C3CN(C(=O)c4cccc(C(F)(F)F)c4)c4cc(Cl)ccc4O3)(C1)C2 (centres unmarked) [Compound 160, 6-chloro-N-{3-[2-(4-chloro-3-fluorophenoxy)acetamido]bicyclo[1.1.1]pentan-1-yl}-4-[3-(trifluoromethyl)benzoyl]-3,4-dihydro-2H-1,4-benzoxazine-2-carboxamide] | > 2000
O=C(COc1ccc(Cl)c(F)c1)NC12CCC(NC(=O)C3CC(O)c4cc(Cl)ccc4O3)(CC1)C[C@@H]2O (stereo partly drawn) [Compound 199, 6-chloro-N-{(3S)-4-[2-(4-chloro-3-fluorophenoxy)acetamido]-3-hydroxybicyclo[2.2.2]octan-1-yl}-4-hydroxy-3,4-dihydro-2H-1-benzopyran-2-carboxamide] | < 10
O=C(COc1ccc(Cl)c(F)c1)NC12CC(NC(=O)C3CN(C(=O)C4(C(F)(F)F)CC4)c4cc(Cl)ccc4O3)(C1)C2 (centres unmarked) [Compound 177, 6-chloro-N-{3-[2-(4-chloro-3-fluorophenoxy)acetamido]bicyclo[1.1.1]pentan-1-yl}-4-[1-(trifluoromethyl)cyclopropane-1-carbonyl]-3,4-dihydro-2H-1,4-benzoxazine-2-carboxamide] | < 10
COc1ccc(C(=O)N2CC(C(=O)NC34CC(NC(=O)COc5ccc(Cl)c(F)c5)(C3)C4)Oc3ccc(Cl)cc32)cc1 (centres unmarked) [Compound 150, 6-chloro-N-{3-[2-(4-chloro-3-fluorophenoxy)acetamido]bicyclo[1.1.1]pentan-1-yl}-4-(4-methoxybenzoyl)-3,4-dihydro-2H-1,4-benzoxazine-2-carboxamide] | 250 to 500
CN1CC(C(=O)NC23CCC(NC(=O)COc4ccc(Cl)c(F)c4)(CC2)[C@@H](O)C3)Oc2ccccc21 (stereo partly drawn) [Compound 111, N-{(3S)-4-[2-(4-chloro-3-fluorophenoxy)acetamido]-3-hydroxybicyclo[2.2.2]octan-1-yl}-4-methyl-3,4-dihydro-2H-1,4-benzoxazine-2-carboxamide] | 50 to 250
